Reference: patent US8632824B2, “Process of obtaining thylakoids from photosynthetic organisms; plant fractions obtained from the process; pure thylakoids; and methods of use of thylakoids as ROS scavengers, photo-protectors, biosensors, biofilters and bioreactors” (Purgenesis Technologies, Inc., priority 2000, dated 2014)

How the values were obtained:
IMR-32 cells [1] = test: Protection of IMR-32 cells against TBHP oxidative stress (Hoechst DNA survival assay); assay type: cell-based, Human; details: for apoptosis produced by TBHP: 1000 cells per well, 1 hour
Source text: Human neuroblastoma cell line (IMR-32), which is known to respond to oxidative stress by apoptosis (Kim et al, 1999), was used as an in vitro cell model. IMR32 cells are particularly sensitive to ROS and other toxicants because their p53 gene product is sequestered in the cytoplasm.
Tert-butyl hydroperoxide (TBHP) was used as an oxidative stress-inducing agent. […] This will allow comparisons if studies relative to more generalized oxidative stress conditions (like the ones found in many neurodegenerative diseases) have to be performed on different cells phenotypes.
Experiments were done using 1000 IMR-32 cells per well, for I hour of incubation. TBHP 50, 75 and 100 μM produced 78%, 87% and 87% apoptosis. TBHP 50 μM was selected to induce apoptosis in the other experiments.
Different dilutions were used on IMR-32 cells along with TBHP. A mother solution 1:10 was constituted, starting from the lyophilized thylakoid fraction, in propylene glycol. Unless otherwise specified, the mentioned dilutions are dilutions of this mother solution. […] The latter dilution was adopted for further experimentation.
IMR-32 Cells were grown in MEM supplemented with 10% FBS at 37° C. in a humidified atmosphere of 95% air and 5% CO2. The cells were seeded at a density of 1×10^4 cells/T25 Falcon tissue culture flasks and subcultured twice weekly. 48 h old cultures were used in all the experiments.
1000 or 3000 cells/well/100 uL were seeded in 96 well (Linbro flat bottom) plates in all the wells except well No. 12 of all the rows. After 24 h the cells were washed 2 times with 250 ul of PBS (pH 7.2) and 32 wells each were treated respectively with 100 and 200 uM solutions of TBHP (70% aqueous solution from Sigma Chemical Company) for 1 h. After 1 h the cells were gently washed 2 times with PBS before adding fresh growth medium. After 24 h the cell survival was assayed by a sensitive fluorimetric assay based on DNA binding fluorescent dye Hoechst by the following procedure. The test measures the total DNA of the population, a measurement which closely correlates with cell number. The medium was aspirated by gentle suction. Cells were rinsed with 250 ul PBS. PBS was aspirated with gentle suction. The rinse step was repeated. 100 uL lysis buffer (0.02% SDS in 1×SSC) was added in every well except the ones for DNA standard and Blank in row 12. The plate was incubated at 37° C. for 1 h with occasional swirling. 100 uL of 40 ug/mL of DNA was added to the DNA wells and 100 uL of 1×SSC buffer was added to the wells that were treated as Blank. 100 uL of 40 ug/ml of Hoechst 33258 in 1×SSC buffer was added to every well, and the plate was covered with Aluminum foil to protect it from light. The plate was agitated gently for 5 minutes and fluorescence was read at excitation wavelength 355 nm and emission wavelength 460 nm.
CT untreated=100%: survival after TBHP: 42%, dead cells: 100−42=58%; population size after PC: 88% difference from CT: 100−88=12% Expected population size after TBHP+PC: 100−58−12=30%. Recovered survival: 60% Survival gain in %: 60−30=30 Protection exerted: 30:60×100=50%
FRTS/1 was used as pre-treatment, co-treatment and post-treatment with the oxidative insult.
The <<Cell damages TBHP/CT>> represents the damages caused by the oxidant calculated as a percentage from the survival of untreated controls. […] The <<Expected survival>> is 100-total expected decrease. […] The <<protection exerted by PC>> is calculated as reported above.

IMR-32 cells [2] = test: Estimation of apoptosis in IMR-32 cells by LDH assay; details: lysed cells = 100%
Method: For this experiment IMR-32 cells were grown in MEM medium without I-Glutamine, Phenolphtaleine and sodium pyruvate 3000 IMR-32 cell/well seeded in 96 well plates. […] After 1 hour the cells were washed with PBS two times and PBS was replaced with the growth medium. […] Two rows were left untreated as Control. The LDH activity was measured by Lactate Dehydrogenase Assay Kit provided by Sigma Diagnostics. The calorimetric assay measures the residual pyruvate (substrate of the enzymatic reaction). The basal activity present in the medium alone (in the absence of Cells) was considered 0% and was systematically subtracted from each experimental value. Control untreated cells in two rows were lysed with Triton X-100 (0.02%) and were treated as samples with 100% LDH release.
The assay used in the present study measures the residual level of enzyme substrate (pyruvate) using a calorimetric reaction. The more the substrate in the medium, the less enzyme released. Medium cells was taken as 0% enzyme activity released, and lysed cells in the medium as 100% released.

[3] = Oxidation of PLPC micelles by peroxyl radicals from AAPH (absorbance at 234 nm); assay type: biochemical; details: FIG. 10
Source text: The peroxidation of unsaturated lipid moieties (reactions 1-3) causes changes in their structure which eventually changes the physical properties of biological membranes. During the lipid peroxidation a conjugated diene group is formed (see LOOH in reaction 3) which has an UV/Vis absorption maximum at λmax=234 nm (ε=29,500 M^−1cm^−1) and this allows a quantification of the oxidation product formed. To obtain quantitative data the lipid peroxidation has to be initiated in a controlled manner (reaction 1). Often azo initiators, which produce a well-defined flux of ROO. in aqueous, aerated solution, are employed to study lipid oxidation in in vitro experiments. […]
Depending on possible reaction pathways of the antioxidant used the concentration time profiles of the detected LOOH display certain characteristics. By using an azo initiator as peroxyl radical source the amount of ROO. generated can be calculated and it is possible to determine the amount of lipids oxidized from the 234 nm absorption of the conjugated diene moiety. Also the amount of ROO. trapped during the lag phase can be determined.
From the duration of a possible lag phase during lipid peroxidation experiments (FIG. 9) the amount of “trapped” radicals can be calculated. […]
The reactions were monitored on a spectrophotometer at 37° C. for 10 h. […]

SMILES: CC(C)(C)OO [TBHP, Tert-butyl hydroperoxide]
- apoptosis produced by TBHP (IMR-32 cells [1]; TBHP 50 μM): 78%
- apoptosis produced by TBHP (IMR-32 cells [1]; TBHP 75 μM): 87%
- apoptosis produced by TBHP (IMR-32 cells [1]; TBHP 100 μM): 87%
- Cell damages TBHP/CT (IMR-32 cells [1]; co-treatment experiment, TBHP 25 uM alone): 39%
- Cell damages TBHP/CT (IMR-32 cells [1]; co-treatment experiment, TBHP 50 uM alone): 67%
- Cell damages TBHP/CT (IMR-32 cells [1]; post-treatment experiment, TBHP 25 uM alone): 38%
- Cell damages TBHP/CT (IMR-32 cells [1]; post-treatment experiment, TBHP 50 uM alone): 66%
- Cell damages TBHP/CT (IMR-32 cells [1]; pre-treatment experiment, TBHP 25 uM alone): 58%
- Cell damages TBHP/CT (IMR-32 cells [1]; pre-treatment experiment, TBHP 50 uM alone): 70%
- survival after TBHP (IMR-32 cells [1]; worked calculation example, CT untreated=100%): 42%
- LDH release/TBHP (IMR-32 cells [2]; TBHP 25 uM alone): 64%
- LDH release/TBHP (IMR-32 cells [2]; TBHP 50 uM alone): 92%

SMILES: CC1=C(/C=C/C(C)=C/C=C/C(C)=C/C=C/C=C(C)/C=C/C=C(C)/C=C/C2=C(C)CCCC2(C)C)C(C)(C)CCC1 [β-carotene]
- oxidation kinetics of lipids compared to Trolox [3]: an antioxidant but with no lag phase
